# Source: article PMC4603705, “A bioinspired peptide scaffold with high antibiotic activity and low in vivo toxicity” (Scientific Reports, 2015)
# Like-named read-outs stand apart in the source and are kept apart here. Bridge positions count the residues as written; N and C are the ends. Square brackets hold non-standard residues; d marks the D form. Peptide text beside a SMILES is read from it. * marks the point of attachment. Decanoyl = CCCCCCCCCC(=O)*; Nonanoyl = CCCCCCCCC(=O)*; Dab = NCC[C@H](N)C(=O)O
# How the values were obtained:
# E. coli ATTC 8739 = format: cell-based, Escherichia coli; details: for MIC E. coli: ATTC 8739; for MIC E. c.: Supplementary Table S1, E. coli
# Description: (§1) MICs were measured after 18–20 h of incubation in sterile 96-well plates (Corning Costar 3598 microtiter plates) in Mueller Hinton Broth (MHB) culture medium, (Difco, USA), according to well known in vitro protocols. Bacterial strains in Table 1 were: P. aeruginosa ATTC 9027, E. coli ATTC 8739, S. aureus ATTC 6538, and E. faecalis ATTC 29212. MICs shown in table 4 were performed by Mary Conrad at Cubist Pharmaceuticals (Lexington, MA) in non-binding surface plates.
# P. aeruginosa ATTC 9027 = format: cell-based, Pseudomonas aeruginosa; details: for MIC P. aeruginosa: ATTC 9027; for MIC P. a.: Supplementary Table S1, P. aeruginosa
# Description: as §1
# S. aureus ATTC 6538 = test: microbe, parasite or virus in culture; format: cell-based, Staphylococcus aureus; details: for MIC S. aureus: ATTC 6538; for MIC S. a.: Supplementary Table S1, S. aureus
# Description: as §1
Compound,MIC S. a. (S. aureus ATTC 6538) [µg/mL],MIC E. c. (E. coli ATTC 8739) [µg/mL],MIC P. a. (P. aeruginosa ATTC 9027) [µg/mL],further results
"CCCCCCCCC(=O)N[C@@H](CCN)C(=O)N[C@H](C(=O)N[C@@H](CCN)C(=O)N[C@H]1CSSC[C@@H](C(N)=O)NC(=O)[C@H](CCN)NC(=O)[C@H](CCN)NC(=O)[C@H](CC(C)C)NC(=O)[C@@H](Cc2ccccc2)NC(=O)[C@H](CCN)NC1=O)[C@@H](C)O [Analog 1, nonanoyl-Dab-Thr-Dab-Cys-Dab-Phe-Leu-Dab-Dab-Cys] (Nonanoyl-[Dab]T[Dab]C[Dab][dF]L[Dab][Dab]C-NH2; disulfide 4-10)",–,–,–,MIC E. coli (E. coli ATTC 8739): 4 µg/mL; MIC P. aeruginosa (P. aeruginosa ATTC 9027): 8 µg/mL
"CCCCCCCCC(=O)N[C@@H](CCCNC(=N)N)C(=O)N[C@H](C(=O)N[C@@H](CCN)C(=O)N[C@H]1CSSC[C@@H](C(N)=O)NC(=O)[C@H](CCN)NC(=O)[C@H](CCN)NC(=O)[C@H](CC(C)C)NC(=O)[C@@H](Cc2ccccc2)NC(=O)[C@H](CCN)NC1=O)[C@@H](C)O [Analog 2, nonanoyl-Arg-Thr-Dab-Cys-Dab-Phe-Leu-Dab-Dab-Cys] (Nonanoyl-RT[Dab]C[Dab][dF]L[Dab][Dab]C-NH2; disulfide 4-10)",–,–,–,MIC E. coli (E. coli ATTC 8739): 8 µg/mL; MIC S. aureus (S. aureus ATTC 6538): >32 µg/mL; MIC P. aeruginosa (P. aeruginosa ATTC 9027): 8 µg/mL
"CCCCCCCCC(=O)N[C@@H](CCN)C(=O)N[C@H](C(=O)N[C@@H](CCCNC(=N)N)C(=O)N[C@H]1CSSC[C@@H](C(N)=O)NC(=O)[C@H](CCN)NC(=O)[C@H](CCN)NC(=O)[C@H](CC(C)C)NC(=O)[C@@H](Cc2ccccc2)NC(=O)[C@H](CCN)NC1=O)[C@@H](C)O [Analog 3, nonanoyl-Dab-Thr-Arg-Cys-Dab-Phe-Leu-Dab-Dab-Cys] (Nonanoyl-[Dab]TRC[Dab][dF]L[Dab][Dab]C-NH2; disulfide 4-10)",–,–,–,MIC E. coli (E. coli ATTC 8739): 8 µg/mL; MIC S. aureus (S. aureus ATTC 6538): >32 µg/mL; MIC P. aeruginosa (P. aeruginosa ATTC 9027): 4 µg/mL
"CCCCCCCCC(=O)N[C@@H](CCN)C(=O)N[C@H](C(=O)N[C@@H](CCN)C(=O)N[C@H]1CSSC[C@@H](C(N)=O)NC(=O)[C@H](CCN)NC(=O)[C@H](CCCNC(=N)N)NC(=O)[C@H](CC(C)C)NC(=O)[C@@H](Cc2ccccc2)NC(=O)[C@H](CCN)NC1=O)[C@@H](C)O [Analog 4, nonanoyl-Dab-Thr-Dab-Cys-Dab-Phe-Leu-Arg-Dab-Cys] (Nonanoyl-[Dab]T[Dab]C[Dab][dF]LR[Dab]C-NH2; disulfide 4-10)",–,–,–,MIC E. coli (E. coli ATTC 8739): 8 µg/mL; MIC S. aureus (S. aureus ATTC 6538): >32 µg/mL; MIC P. aeruginosa (P. aeruginosa ATTC 9027): 2 to 4 µg/mL
"CCCCCCCCC(=O)N[C@@H](CCN)C(=O)N[C@H](C(=O)N[C@@H](CCCNC(=N)N)C(=O)N[C@H]1CSSC[C@@H](C(N)=O)NC(=O)[C@H](CCN)NC(=O)[C@H](CCCNC(=N)N)NC(=O)[C@H](CC(C)C)NC(=O)[C@@H](Cc2ccccc2)NC(=O)[C@H](CCN)NC1=O)[C@@H](C)O [Analog 6, nonanoyl-Dab-Thr-Arg-Cys-Dab-Phe-Leu-Arg-Dab-Cys] (Nonanoyl-[Dab]TRC[Dab][dF]LR[Dab]C-NH2; disulfide 4-10)",–,–,–,MIC E. coli (E. coli ATTC 8739): 8 µg/mL; MIC P. aeruginosa (P. aeruginosa ATTC 9027): 8 µg/mL
"CCCCCCCCC(=O)N[C@@H](CCCNC(=N)N)C(=O)N[C@H](C(=O)N[C@@H](CCCNC(=N)N)C(=O)N[C@H]1CSSC[C@@H](C(N)=O)NC(=O)[C@H](CCCNC(=N)N)NC(=O)[C@H](CCCNC(=N)N)NC(=O)[C@H](CC(C)C)NC(=O)[C@@H](Cc2ccccc2)NC(=O)[C@H](CCN)NC1=O)[C@@H](C)O [Analog 10, nonanoyl-Arg-Thr-Arg-Cys-Dab-Phe-Leu-Arg-Arg-Cys] (Nonanoyl-RTRC[Dab][dF]LRRC-NH2; disulfide 4-10)",–,–,–,MIC E. coli (E. coli ATTC 8739): 32 µg/mL; MIC S. aureus (S. aureus ATTC 6538): 32 µg/mL; MIC P. aeruginosa (P. aeruginosa ATTC 9027): 16 µg/mL
"CCCCCCCCC(=O)N[C@@H](CCCNC(=N)N)C(=O)N[C@H](C(=O)N[C@@H](CCN)C(=O)N[C@H]1CSSC[C@H](C(N)=O)NC(=O)[C@H](CCN)NC(=O)[C@H](CCCNC(=N)N)NC(=O)[C@H](CC(C)C)NC(=O)[C@@H](Cc2ccccc2)NC(=O)[C@H](CCN)NC1=O)[C@@H](C)O [Analog 13, nonanoyl-Arg-Thr-Dab-Cys-Dab-Phe-Leu-Arg-Dab-Cys] (Nonanoyl-RT[Dab]C[Dab][dF]LR[Dab][dC]-NH2; disulfide 4-10)",–,–,–,MIC E. coli (E. coli ATTC 8739): 4 µg/mL; MIC S. aureus (S. aureus ATTC 6538): 16 µg/mL; MIC P. aeruginosa (P. aeruginosa ATTC 9027): 8 µg/mL
"CCCCCCCCCC(=O)N[C@@H](CCCNC(=N)N)C(=O)N[C@H](C(=O)N[C@@H](CCN)C(=O)N[C@H]1CSSC[C@@H](C(N)=O)NC(=O)[C@H](CCN)NC(=O)[C@H](CCCNC(=N)N)NC(=O)[C@H](CC(C)C)NC(=O)[C@@H](Cc2ccccc2)NC(=O)[C@H](CCN)NC1=O)[C@@H](C)O [Analog 36, decanoyl-Arg-Thr-Dab-Cys-Dab-Phe-Leu-Arg-Dab-Cys] (Decanoyl-RT[Dab]C[Dab][dF]LR[Dab]C-NH2; disulfide 4-10)",–,–,–,MIC E. coli (E. coli ATTC 8739): 8 µg/mL; MIC S. aureus (S. aureus ATTC 6538): 16 µg/mL; MIC P. aeruginosa (P. aeruginosa ATTC 9027): 8 µg/mL
"CCCCCCCCCC(=O)N[C@@H](CCN)C(=O)N[C@H](C(=O)N[C@@H](CCN)C(=O)N[C@H]1CSSC[C@H](C(N)=O)NC(=O)[C@H](CCN)NC(=O)[C@H](CCN)NC(=O)[C@H](CC(C)C)NC(=O)[C@@H](Cc2ccccc2)NC(=O)[C@H](CCN)NC1=O)[C@@H](C)O [Analog 37, decanoyl -Dab-Thr-Dab-Cys-Dab-Phe-Leu-Dab-Dab-Cys] (Decanoyl-[Dab]T[Dab]C[Dab][dF]L[Dab][Dab][dC]-NH2; disulfide 4-10)",–,–,–,MIC E. coli (E. coli ATTC 8739): 2 µg/mL; MIC S. aureus (S. aureus ATTC 6538): 8 µg/mL; MIC P. aeruginosa (P. aeruginosa ATTC 9027): 4 µg/mL
C9-Arg(NO2)-Thr-Dab-Cys-Dab-Phe-Leu-Arg(NO2)-Dab-Cys [Analog 16],> 32,–,–,–
C9-Arg-Thr-Arg-Cys-Arg-Phe-Leu-Arg-Dab-Cys (RTRCRFLR; not fully specified; C9 acyl; Dab-Cys C-terminal; printed: Arg-Thr-Arg-Cys-Arg-Phe-Leu-Arg-) [Analog 11],16,16,128,–
C9-Arg-Thr-Arg-Cys-Dab-Phe-Leu-Dab-Dab-Cys [Analog 7],32,32,32,–
C9-Arg-Thr-Arg-Cys-Dab-Phe-Met-Arg-Dab-Cys [Analog 22],32,16,16,–
C9-Arg-Thr-Dab-Cys-Arg-Phe-Leu-Arg-Dab-Cys [Analog 9],16,16,128,–
C9-Arg-Thr-Dab-Cys-Dab-Phe-Leu-Arg-Dab-Cys [Analog 17],–,–,–,MIC P. a. (P. aeruginosa ATTC 9027; listed as 17): 16 µg/mL
C9-Arg-Thr-Dab-Cys-Dab-Phe-Met-Arg-Dab-Cys [Analog 21],> 32,–,8,–
C9-Arg-Thr-Dab-Ser-Dab-Phe-Leu-Arg-Dab-Ser [Analog 18],64,32,64,–
C9-Dab-Thr-Dab-Cys-Dab-Phe-Met(O)-Dab-Dab-Cys [Analog 20],> 32,> 32,–,–
C9-Dab-Thr-Dab-Cys-Dab-Phe-Met-Dab-Dab-Cys [Analog 19],32,4,16,–
C9-Dab[(C=NH)NH2]-Thr-Dab-Cys-Dab-Phe-Leu-Dab[(C=NH)NH2]-Dab-Cys [Analog 15],> 32,4,8,–
C9-Dap[(C=NH)NH2]-Thr-Dab-Cys-Dab-Phe-Leu-Dap[(C=NH)NH2]-Dab-Cys [Analog 14],16,2,16,–

# Further lines, with some results ahead:
MIC S. a. (S. aureus ATTC 6538) [µg/mL],MIC E. c. (E. coli ATTC 8739) [µg/mL],MIC P. a. (P. aeruginosa ATTC 9027) [µg/mL],Compound,further results
> 128,> 128,> 128,C9-Arg-Thr-Dab-Cys-Dab-Gly-Gly-Arg-Dab-Cys [Analog 24],–
> 128,> 128,> 128,C9-Arg-Thr-Dab-Cys-Dab-Gly-Leu-Arg-Dab-Cys [Analog 25],–
32,32,16,C9-Arg-Thr-Dab-Cys-Dab-Leu-Leu-Arg-Dab-Cys [Analog 29],–
> 128,32,32,C9-Arg-Thr-Dab-Cys-Dab-Leu-Thr-Arg-Dab-Cys [Analog 30],–
128,64,> 128,C9-Arg-Thr-Dab-Cys-Dab-Phe-Gly-Arg-Dab-Cys [Analog 26],–
32,64,–,C9-Arg-Thr-Dab-Cys-Dab-Phe-Leu-Arg-Dab-Cys [Analog 23],MIC P. a. (P. aeruginosa ATTC 9027; listed as 23): 128 µg/mL
64,16,8,C9-Arg-Thr-Dab-Cys-Dab-Phe-Thr-Arg-Dab-Cys [Analog 27],–
8,4,8,C9-Arg-Thr-Dab-Cys-Dab-Trp-Leu-Arg-Dab-Cys [Analog 28],–
128,32,32,C9-Arg-Thr-His-Cys-Dab-Phe-Leu-Arg-His-Cys [Analog 31],–
32,8,16,C9-Arg-Thr-Lys-Cys-Dab-Phe-Leu-Arg-Lys-Cys [Analog 32],–
32,8,16,C9-Arg-Thr-Orn-Cys-Dab-Phe-Leu-Arg-Orn-Cys [Analog 34],–
128,16,32,C9-Lys-Thr-Dab-Cys-Dab-Phe-Leu-Lys-Dab-Cys [Analog 33],–
64,16,16,C9-Orn-Thr-Dab-Cys-Dab-Phe-Leu-Orn-Dab-Cys [Analog 35],–
